Experimental data as given in patent US20150258059A1, “ANTIMICROBIAL AND RADIOPROTECTIVE COMPOUNDS” (BioDiem, Ltd, priority 2001, published 2015).
In brackets after ≈: the same amount, converted by molar mass. Read-outs that look alike come from different tables or passages of the source. Marks after values point to notes of the source that are not given here.

Tests used:
[1] = test system: Citrobacter diversus B-678; assay: Sensitivity of strains: suppression of growth; assay type: cell-based; details: Compound (1) 1.0%; antibiotics disc method
Alkaligenes sp. B-689 = assay: Sensitivity of strains: suppression of growth; assay type: cell-based; details: Compound (1) 1.0%; antibiotics disc method
[2] = test system: Staphylococcus aureus M-209; assay: Sensitivity of strains: suppression of growth; assay type: cell-based; details: Compound (1) 1.0%; antibiotics disc method
[3] = test system: Staphylococcus aureus B-685; assay: Sensitivity of strains: suppression of growth; assay type: cell-based; details: Compound (1) 1.0%; antibiotics disc method
[4] = test system: Staphylococcus aureus B-674; assay: Sensitivity of strains: suppression of growth; assay type: cell-based; details: Compound (1) 1.0%; antibiotics disc method
Shigella sonnei B-720 = assay: Agar diffusion assay; assay type: cell-based
Candida albicans B-45 = assay: Sensitivity of pathogenic fungi; assay type: cell-based; details: Inoculation 5 × 10^4
[5] = test system: Salmonella intraperitoneally; assay: Anti-bacterial activity in vivo, infected mice; details: schedule −1, 0, +1, +2, +3; 200 mg/kg intrmuscularly
[6] = test system: S. aureus-clinical isolate 1; assay: microbe, parasite or virus in culture; assay type: cell-based
Text: (§1) NCCLS-USA Standard Method—Broth microdilution (or macrodilution) (Mueller-Hinton).
(§2) Inoculum 1-4×10^4 cfu (or −4×10^5 cfu). Ciprofloxacin test control. Chlorhexidine values added for disinfectant and antiseptic activity comparison.

[7] = test system: S. aureus-clinical isolate 2; assay: microbe, parasite or virus in culture; assay type: cell-based
Text: as §1, §2

[8] = test system: Corynebacterium xerosis RMIT; assay: NCCLS broth microdilution MIC/MBC; assay type: cell-based; details: for MIC: Corynebacterium xerosis
Haemophilus influenzae = assay: NCCLS broth microdilution MIC/MBC; assay type: cell-based
Proteus mirabilis = assay: NCCLS broth microdilution MIC/MBC; assay type: cell-based; details: for MIC: Proteus mirabilis
Trichophyton rubrum = assay: NCCLS broth macro-dilution MIC/MFC (RPMI); assay type: cell-based; details: Table 10, 7 day, 30° C.
Proteus vulgaris = assay: microbe, parasite or virus in culture; assay type: cell-based; details: for MIC: Proteus vulgaris
S. aureus [9] = assay: Antibacterial activity in the presence of blood, macrodilution; assay type: cell-based
M. catarrhalis = assay: as above; assay type: cell-based; details: for MIC: Moraxella catarrhalis
S. aureus [10] = assay: MIC in increasing concentrations of plasma; assay type: cell-based; details: Staphylococcus aureus
Text: (§3) […]. Serum binding is significant in drug distribution and bioavailability.
(§4) […]. Bactericidal activity is much more affected than inhibitory activity.

Streptococcus pyogenes = assay: MIC in increasing concentrations of plasma; assay type: cell-based
Text: as §3, §4

[11] = test system: C. guillermondii RMIT 176; assay: M38-P microdilution MIC/MFC; assay type: cell-based; details: Table 16, 24 h, 35° C.
Rhizopus stoloniefer = assay: M38-P microdilution MIC/MFC; assay type: cell-based; details: Table 16, 48 h, 35° C.
Acinetobacter B-681 = assay: Agar diffusion assay
[12] = test system: Acinetobacter calcoaceticus; assay: Rate of kill, viable counts; details: in 6 h
Candida albicans [13] = assay: Rate of kill, viable counts
Candida albicans [14] = assay: Impregnated agar serial double dilutions; details: meat peptone agar
[15] = Table 19, 24 H, 35° C., O2-MICRO METHOD

C/C(=C\c1ccc2c(c1)OCO2)[N+](=O)[O-] [Compound (1)]
Suppression of Growth (+/−) [1]: + | Suppression of Growth (+/−) (Alkaligenes sp. B-689): + | Suppression of Growth (+/−) [2]: + | Suppression of Growth (+/−) [3]: + | Suppression of Growth (+/−) [4]: + | Diameter of zone of Growth inhibition (Shigella sonnei B-720; Concentration in disc 0.1%): 30# mm | Diameter of zone of Growth inhibition (Shigella sonnei B-720; Concentration in disc 1.0%): 35# mm | Diameter of zone of Growth inhibition (Shigella sonnei B-720; Concentration in disc 2.0%): 39# mm | Number of microbes: Growth (Candida albicans B-45; 0.1%): 0 | Number of microbes: Retardation (Candida albicans B-45; 0.1%): 5 × 10^6 | Number of microbes: Growth (Candida albicans B-45; 0.5%): 0 | Number of microbes: Retardation (Candida albicans B-45; 0.5%): 5 × 10^6 | Number of microbes: Growth (Candida albicans B-45; 2.0%): 0 | Number of microbes: Retardation (Candida albicans B-45; 2.0%): 5 × 10^4 | Cumulative mortality (test) [5]: 47 | Incubation period days (test) [5]: 0 days | MIC ([6]; Staphylococcus aureus, 24 h): 16 mg/L (≈ 77.2 µM) | MMC ([6]; Table 9, 35° C., 24 hours): 16 µg/mL | MMC ([6]; Table 17, 2 or 3 replicates): 16 µg/mL | MIC ([7]; Staphylococcus aureus, 24 h): 16 mg/L (≈ 77.2 µM) | MMC ([7]; Table 9, 35° C., 24 hours): 16 µg/mL | MMC ([7]; Table 17, 2 or 3 replicates): 16 µg/mL | MIC ([8]; Table 9, 35° C., 24 hours): 32.2 mg/L (≈ 155 µM) | MIC ([8]; Table 17, 2 or 3 replicates): 32 mg/L (≈ 154 µM) | MMC ([8]; Table 9, 35° C., 24 hours): 32.16 µg/mL | MMC ([8]; Table 17, 2 or 3 replicates): 32 µg/mL | MIC (Haemophilus influenzae; Haemophilus influenzae, Table 9, 35° C., 24 hours, read-out: MIC): 0.125 mg/L (≈ 0.603 µM) | MIC (Haemophilus influenzae; Haemophilus influenzae, Table 17, 2 or 3 replicates, read-out: MIC): 0.125 mg/L (≈ 0.603 µM) | MMC (Haemophilus influenzae; Table 9, 35° C., 24 hours): 0.125 µg/mL | MMC (Haemophilus influenzae; Table 17, 2 or 3 replicates): 0.125 µg/mL | MIC (Haemophilus influenzae; [15]): 0.125 mg/L (≈ 0.603 µM) | MMC (Haemophilus influenzae; [15]): 0.125 µg/mL | MIC (Proteus mirabilis): 256 mg/L (≈ 1240 µM) | MIC (Proteus mirabilis; 24 h): 256 mg/L (≈ 1240 µM) | MMC (Proteus mirabilis; Table 9, 35° C., 24 hours): >512 µg/mL | MMC (Proteus mirabilis; Table 17, 2 or 3 replicates): >512 µg/mL | MMC (Trichophyton rubrum): 256 µg/mL | MIC (Trichophyton rubrum; Trichophyton rubrum, 168 h): 1 mg/L (≈ 4.83 µM) | MIC (Proteus vulgaris; after 12 weeks continuous exposure, read-out: Standard MIC Final): 128 mg/L (≈ 618 µM) | MIC (Proteus vulgaris; before exposure, MHB, read-out: Standard MIC Initial): 128 mg/L (≈ 618 µM) | 7-Day MIC Range (Proteus vulgaris; Range to Week 12, No Rising Trend): 64 to 256 mg/L | MIC (S. aureus [9]; 5% blood): 16 mg/L | MMC (S. aureus [9]; 5% blood): 256 µg/mL | MIC (S. aureus [9]; 10% plasma): 16 mg/L | MMC (S. aureus [9]; 10% plasma): 256 µg/mL | MIC (S. aureus [9]; Staphylococcus aureus): 16 mg/L | MMC (M. catarrhalis; 5% blood): 8 µg/mL | MMC (M. catarrhalis; 10% plasma): 8 µg/mL | MIC (M. catarrhalis; 5% blood): 4 mg/L | MIC (M. catarrhalis; 10% plasma): 8 mg/L | MIC (M. catarrhalis; — (no plasma or blood)): 32 mg/L | MIC (S. aureus [10]; 0% plasma in MHB): 4 mg/L (≈ 19.3 µM) | MIC (S. aureus [10]; 1% plasma in MHB): 4 mg/L (≈ 19.3 µM) | MIC (S. aureus [10]; 2.5% plasma in MHB): 8 mg/L (≈ 38.6 µM) | MIC (S. aureus [10]; 5% plasma in MHB): 8 mg/L (≈ 38.6 µM) | MIC (S. aureus [10]; 10% plasma in MHB): 16 mg/L (≈ 77.2 µM) | MIC (S. aureus [10]; 20% plasma in MHB): 32 mg/L (≈ 154 µM) | MIC (S. aureus [10]; 50% plasma in MHB): 128 mg/L (≈ 618 µM) | MIC (S. aureus [10]; 100% plasma in MHB): 128 mg/L (≈ 618 µM) | MIC (Streptococcus pyogenes): 256 mg/L (≈ 1240 µM) | MIC (Streptococcus pyogenes; 0% plasma in MHB, read-out: MIC): 4 mg/L (≈ 19.3 µM) | MIC (Streptococcus pyogenes; 1% plasma in MHB, read-out: MIC): 4 mg/L (≈ 19.3 µM) | MIC (Streptococcus pyogenes; 2.5% plasma in MHB, read-out: MIC): 8 mg/L (≈ 38.6 µM) | MIC (Streptococcus pyogenes; 5% plasma in MHB, read-out: MIC): 8 mg/L (≈ 38.6 µM) | MIC (Streptococcus pyogenes; 10% plasma in MHB, read-out: MIC): 16 mg/L (≈ 77.2 µM) | MIC (Streptococcus pyogenes; 20% plasma in MHB, read-out: MIC): 32 mg/L (≈ 154 µM) | MIC (Streptococcus pyogenes; 50% plasma in MHB, read-out: MIC): 64 mg/L (≈ 309 µM) | MMC [11]: 2 µg/mL | MIC ([11]; read-out: MIC): 2 mg/L (≈ 9.65 µM) | MIC (Rhizopus stoloniefer; Rhizopus, read-out: MIC): 4 mg/L (≈ 19.3 µM) | MMC (Rhizopus stoloniefer): 16 µg/mL | Diameter of zone of Growth inhibition (Acinetobacter B-681; Concentration in disc 0.1%): 32# mm | Diameter of zone of Growth inhibition (Acinetobacter B-681; Concentration in disc 1.0%): 35# mm | Diameter of zone of Growth inhibition (Acinetobacter B-681; Concentration in disc 2.0%): 38# mm | Log reduction in viable count ([12]; 256 μg/mL): 1 in 6 h | Log reduction in viable count ([12]; 512 μg/mL): 1 in 6 h | Log reduction in viable count (Candida albicans [13]; 128 μg/mL, in 6h): 2 in 6h | Log reduction in viable count (Candida albicans [13]; 256 μg/mL, in 4h): 6 in 4h | Log reduction in viable count (Candida albicans [13]; 512 μg/mL, at 2 h): 5.5 at 2 h | reduction (kill) (Candida albicans [13]; within 2 hrs at 512 μg/mL): > 99.999% | reduction (kill) (Candida albicans [13]; within 4 hours at 256 μg/mL): > 99.999% | Minimal % Compound (1) giving complete inhibition of test culture (Candida albicans [14]): 0.5%
